Patent US20210147811A1, “METHODS FOR IN VITRO EXPANSION OF ADULT TISSUE STEM CELLS” (CEDARS-SINAI MEDICAL CENTER, priority 2018, published 2021)

Legend:
[1] = system: freshly isolated murine proximal total epithelial cells; assay: Organoid culture of murine tracheal progenitor (basal) cells; format: cell-based
Protocol: FIG. 18. Effect of ROCK and P53 inhibition on murine tracheal progenitor (basal) cells. Addition of both ROCKi (in presence of SB431542) increases the colony forming efficiency of freshly isolated murine proximal total epithelial cells (isolated from the murine trachea).
Distal progenitor cells were cultured as 3D organoids for 14 days in presence of Pifithrin-alpha, ROCKi and SB431542 followed by culture for 7 days in media without all three inhibitors. […] Addition of ROCKi (in presence of SB431542) increases the colony forming efficiency of freshly isolated club cells (regional stem cells which maintain certain cell types in the bronchiolar epithelium) whereas addition of Pifithrin alpha (in presence of SB431542) increases the size of Scgb1a1-derived organoids. Addition of both ROCKi (in presence of SB431542) increases the colony forming efficiency of freshly isolated murine proximal total epithelial cells (isolated from the murine trachea).

lung stem cells = assay: In vitro organoid assays of clonal expansion of lung stem cells; format: cell-based; conditions: combination of p53 inhibitor with ROCK inhibitor (and TGFb inhibitors)
Text: Methods have been developed for expansion of stem cells using a combination of irradiated NIH-3T3 fibroblasts and a ROCK inhibitor (Y27632). […] Preliminary studies by the Inventors have shown that pharmacologic inhibition of p53 results in greater clonal expansion of lung stem cells compared to use of ROCK inhibitor Y27632 alone. Effects of combined treatment with Pifithrin-α and Y27632 are additive. Future studies will determine reversibility of Pifirthrin-α effects on stem cell expansion and differentiation. This includes: 1) validating that the observed increase in clonogenic potential of lung stem cells is the result of stem cell expansion, 2) application of the aforementioned pharmacologic intervention during in vitro stem cell expansion enhances their viability following cryopreservation, 3) that application of the aforementioned pharmacologic intervention during in vitro stem cell expansion enhances to functionally engraft into lung tissue following orthotopic lung transplantation, 4) that stem cells expanded under these conditions retain full capacity for differentiation into specialized lung epithelial cell types and 5) that established culture conditions can be used to expand human lung stem cells. […]

freshly isolated cells = assay: Freshly isolated cells cultured with small molecules at different time points (proliferation); format: cell-based; conditions: different time points (FIG. 2)
Text: FIG. 1. Experimental design. Preconditioning of donor cells, including addition of small molecules such as ROCK inhibitor, pifithrin α, or combined together, and generation of organoids.
FIG. 2. Freshly isolated cells cultured with small molecules at different time points.

[2] = system: freshly isolated alveolar type II cells; assay: Organoid culture of lineage labelled murine alveolar type II cells; format: cell-based; conditions: GFP+ alveolar type II cells, in presence of SB431542
Text: FIG. 15. Effect of ROCK and P53 inhibition on lineage labelled murine alveolar type II cells. GFP^+ alveolar type II cells were isolated from tamoxifen treated SPC-CreER/ROSARG mice. Addition of both ROCKi and Pifithrin alpha (in presence of SB431542) increases the colony forming efficiency of freshly isolated alveolar typeII cells (regional stem cells which maintain the epithelium of the air sacs in the lung). The effect is synergistic for their combined use, similar to that seen for total distal epithelial cells in the previous figures.
(§1) ROCKi increases the colony forming efficiency when murine distal total epithelial cells (isolated from the lung without trachea) are pre-cultured on collagen coated plates for 24 hrs prior after initial isolation. The effect on size is more pronounced when cells are precultured for 24 hrs on collagen coated plates after initial isolation. The drop in CFE in the Pifithrin alpha+ROCKi group is likely due space and nutrient availability constraints due to the large number of organoids per well. Addition of both ROCKi and Pifithrin alpha (in presence of SB431542) increases the colony forming efficiency of freshly isolated alveolar type II cells (regional stem cells which maintain the epithelium of the air sacs in the lung). The effect is synergistic for their combined use, similar to that seen for total distal epithelial cells in the previous figures.

[3] = system: murine pre-cultured distal total epithelial cells; assay: 3D organoid culture of murine distal total epithelial cells pre-cultured 24 hrs on collagen coated plates; format: cell-based; conditions: pre-cultured on collagen coated plates for 24 hrs after isolation, +SB431542
Text: FIG. 4. Effect of pre-culturing—Day 3. Pre-culturing cells on collagen coated plates for 24 hrs after initial isolation increases the rate of organoid formation, with organoids being visible as early as day 3 in culture.
FIG. 5. Effect of pre-culturing—Day 8. Addition of Pifithrin α causes an increase in organoids size, while addition of ROCKi causes an increase in the colony forming efficiency. This effect is more pronounced when cells are pre-cultured for 24 hrs on collagen coated plates after initial isolation.
FIG. 14. Effect of inhibitors on murine pre-cultured distal total epithelial cells in (+SB431542). Addition Pifithrin alpha increases organoid size while addition of ROCKi increases the colony forming efficiency when murine distal total epithelial cells (isolated from the lung without trachea) are pre-cultured on collagen coated plates for 24 hrs prior after initial isolation. The effect on size is more pronounced when cells are precultured for 24 hrs on collagen coated plates after initial isolation. The drop in CFE in the Pifithrin alpha+ROCKi group is likely due space and nutrient availability constraints due to the large number of organoids per well.
as §1

p53 = biological target: T1, p53 (Homo sapiens, UniProt P04637); conditions: cited from earlier work
T1 construct: host or cells: neuronal cells (not further described)
T1 sequence (P04637 whole entry, species assumed): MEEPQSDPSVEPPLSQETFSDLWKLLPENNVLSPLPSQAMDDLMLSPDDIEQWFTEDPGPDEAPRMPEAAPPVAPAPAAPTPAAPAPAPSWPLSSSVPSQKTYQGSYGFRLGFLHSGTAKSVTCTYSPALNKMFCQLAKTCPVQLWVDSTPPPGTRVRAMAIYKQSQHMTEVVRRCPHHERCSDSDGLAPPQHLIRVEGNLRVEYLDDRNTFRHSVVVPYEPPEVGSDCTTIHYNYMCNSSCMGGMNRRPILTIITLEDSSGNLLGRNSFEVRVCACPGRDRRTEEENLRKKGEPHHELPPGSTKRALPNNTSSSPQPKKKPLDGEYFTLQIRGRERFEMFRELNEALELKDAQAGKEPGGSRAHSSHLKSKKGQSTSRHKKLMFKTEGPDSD

With Cc1ccc(C(=O)Cn2c3c(sc2=N)CCCC3)cc1 [Pifithrin α] the colony forming efficiency ([1]; cells isolated from the murine trachea, in presence of SB431542) was “does not show a significant effect”, the “survival of proximal and distal progenitors (inferred from colony forming ability)” value ([1]; comparison of proximal and distal progenitor cell types) was “specific to distal stem cells” and the “effect of combined use on clonal expansion / clonogenic potential of lung stem cells” value (lung stem cells) was “additive”. The proliferation of cells (freshly isolated cells) was “have an effect on proliferation”, the colony forming efficiency [2] was “increases” and the “size of the alveolar organoids” value [2] was “does not increase”. The organoid size [3] was “increase”, the organoid size ([3]; listed as Pifithrin alpha) was “increases” and the “protection against p53-induced neuronal cell death” value (p53) was “protection”.
